Tests used:
[1] = test system: RAW264.7 cells (murine macrophage); assay: Inhibition of nitric oxide production in vitro (nitrite by Griess reagent in LPS-stimulated macrophage cells); format: cell-based; conditions: Mus musculus, LPS 1 μg/mL, 24 hours, test solution 25-200 μM, nitrite by Griess reagent at 550 nm, Mean ± S.E. of 4-6 observations, read-out: IC50 (inhibition of LPS-induced NO production)
Method: • 1. Prepare the cell culture medium DMEM (Dulbecco's modified eagle medium) with 10% fetal calf serum and 10% penicillin-streptomycin. Grow RAW264.7 cells (murine macrophage) in the medium in an incubator at 37° C. under 5% CO2 and saturated water vapor. • 2. Dissolve each test compound in DMSO to make a stock solution. Prepare the test solutions by making suitable dilutions of each stock solution with DMEM. • 3. Add the LPS solution (final concentration=1 μg/mL) and the test solution (final concentration ranging from 25, 50, 100, and up to 200 μM) to individual cell cultures and place in the incubator for 24 hours. • 4. In vitro Nitrite quantification: The production of NO was determined by measuring the accumulated levels of nitrite in culture supernatants with the Griess reagent in LPS-stimulated macrophage cells. • (a) Withdraw 100 μL of the medium from each cell culture and place in a 96-well plate microplate. Add 100 μL of Griess reagent to the medium at room temperature and cover with aluminum foil for 10 minutes. • (b) Measure the absorption by a Dynatech ELISA reader at 550 nm. NaNO2 was used as the standard to calculate the nitrite concentration. • (c) Calculate the % inhibiiton by the following equation: […]
Wherein RM is the reading of medium only, RM+L is the reading of medium with LPS, RM+L+C is the reading of medium with LPS and test compound.

[2] = test system: inducible nitric oxide synthase (iNOS) in rat astrocytes; conditions: cited from earlier work

Compound: Cc1cc(C(=O)Oc2ccc(OC(=O)c3cc(C)on3)cc2)no1 [Compound 15c]
- melting point: 148 to 150 °C
- IC50 [1]: 7.6 ± 0.4 µM

Compound: C/C(O)=C(\C#N)C(=O)Nc1ccc(C(F)(F)F)cc1 [Compound A771726, reference compound]
- IC50 [1]: 175 ± 4.7 µM

Compound: Cc1oncc1C(=O)Nc1ccc(C(F)(F)F)cc1 [lefunomide, leflunomide]
- inhibition of activation of iNOS [2]: inhibit activation of iNOS in rat astrocytes

Compound: Cc1cc(C(=O)Nc2ccc(NC(=O)c3cc(C)on3)cc2)no1 [Compound 14c]
- melting point: 178 to 180 °C
- IC50 [1]: 0.6 ± 0.01 µM

From US7291743B2, “Isoxazole derivatives and methods of treating nitric oxide mediated diseases” (Geneblue Corporation, priority 2005, dated 2007)
